From patent US20250269072A1, “PROCESSES FOR PREPARING RADIOLABELLED CONJUGATES” (CENTENARY INSTITUTE OF CANCER MEDICINE AND CELL BIOLOGY, priority 2021, published 2025)

Assays:
[1] = In-human study of ^68Ga-CDI: safety and tolerability; assay type: in vivo; settings: 5 subjects
Description: This open label, single arm interventional study recruited subjects with histologically or cytologically confirmed solid malignancy with at least one measurable lesion >2 cm. The study was approved by the South Eastern Sydney Local Health District Human Research Ethics committee (2019/ETH04821) and all subjects signed an informed consent form. […] Within 28 days of undergoing the study subjects were screened to ensure they met inclusion and exclusion criteria and written consent obtained. Although not an inclusion criteria for participation in this study, all patients also underwent an FDG PET CT between 3-11 days prior to CDI PET CT as part of standard of care.
Subjects were encouraged to be well orally hydrated prior to ^68Ga-CDI administration, otherwise there was no preparation required. Two intravenous cannulas were placed (one for administration of ^68Ga-CDI and the other blood sampling during the study). Immediately prior to ^68Ga-CDI administration clinical assessment of participants was performed, vital signs (blood pressure, heart rate, respiratory rate, arterial oxygen saturation and temperature) measured and a 12-lead electrocardiogram (ECG) obtained and QTc calculated according to Bazett's formula to confirm eligibility. ^68Ga-CDI was administered as an intravenous bolus.
During and immediately following completion of the scanning protocol, subjects were clinically assessed for adverse reactions and vital signs measured. Blood was collected for venous radioactivity measurements at 1, 2 and 3 hours following ^68Ga-CDI administration. Subjects were asked to void between 1.5 to 2 h and 2.75 to 3 h after ^68Ga-CDI administration, urine collected, the volume measured, and an aliquot counted in a gamma counter to determine activity concentration. Following completion of the scanning protocol, ECG was recorded, and blood collected for biochemical and haematological assessment.
On the day following the ^68Ga-CDI PET CT subjects were clinically assessed for adverse reactions, vital signs, ECG obtained, and blood collected for biochemical and haematological assessment. […]

tumour deposits = assay: Human studies: tumour uptake by PET and histological correlation; assay type: in vivo
Description: patient with squamous cell carcinoma of the oesophagus • 2. Person with metastatic ovarian carcinoma • 3. Person with metastatic cutaneous squamous cell carcinoma • 4. Person with invasive ductal breast carcinoma.
Whilst blood pool and clearance are reproducible, tumour uptake and clearance vary by tumour type.
Dissected tumours were fixed in formalin, embedded in paraffin and 4 μm thick sections were cut. Adjacent sections were stained for apoptotic cells using TUNEL (Abcam, Cat #206386) or morphology using haematoxylin and eosin. For TUNEL staining, sections were deparaffinized in xylene, rehydrated in decreasing concentrations of ethanol and permeabilized with Proteinase K for 20 min at room temperature. The endogenous peroxidase activity was quenched with 3% H2O2 for 5 min. Apoptotic cells were labelled with biotinylated terminal deoxynucleotidyl transferase at 37° C. in a humidified chamber for 2 h followed by a 30 min incubation with streptavidin-HRP conjugate. HRP-positive cells were developed using diaminobenzidine and sections counterstained with methyl green (Sigma). Whole sections were imaged using PowerMosaic scanning at 10× magnification on a Leica DM6000D microscope.

**Q.** Which “adverse or pharmacologic effects” value [1] does the source give for `O=C(O)CNC(=O)[C@H](CSCC(=O)Nc1ccc([As](O)O)cc1)NC(=O)CC[C@H](NC(=O)CCC1C(=O)[O][68Ga]2[O]C(=O)CN3CCN(CCN1CC3)CC(=O)[O]2)C(=O)O` (stereo partly shown) [^68Ga-NODAGA-GSAO] here?
**A.** Its value is “no adverse or clinically detectable pharmacologic effects”.

**Q.** What about the “vital signs, laboratory studies, electrocardiograms” value [1] of the same compound?
**A.** The value was “No significant changes”.

**Q.** And the tolerability ([1]; 205±4.1 MBq i.v.)?
**A.** The tolerability was “well tolerated”.

**Q.** And the “tumour uptake SUVmean” value (tumour deposits; breast carcinoma)?
**A.** The value was 1.8.

**Q.** And the “correlation of tumour uptake with dead and dying cells” value (tumour deposits; histopathology)?
**A.** The value was “correlate with the proportion of dead and dying cells within the tumour”.

**Q.** And the “tumour uptake SUVmean” value (tumour deposits; metastatic cutaneous squamous cell carcinoma)?
**A.** Its value is 4.1.

**Q.** What about the “tumour uptake SUVmean” value (tumour deposits; metastatic ovarian carcinoma) of the same compound?
**A.** Its value is 1.9.

**Q.** And the “tumour uptake SUVmean” value (tumour deposits; patient 3, right axillary nodal metastasis)?
**A.** The value was 4.1.

**Q.** And the “tumour uptake SUVmean” value (tumour deposits; squamous cell carcinoma of the oesophagus)?
**A.** The value was 3.8.

**Q.** What about the “tumour uptake relative to blood pool” value (tumour deposits; tumours with high uptake) of the same compound?
**A.** The value was “up to 2 fold”.
